Values of other authors as cited in patent US20070248669A1, “Oral sustained release formulation” (priority 2006, published 2007).
Counter-ions that a name gives are not always drawn.

Experiments:
[1] = compressed tablets, therapeutic dosing
[2] = daily multiple dosing regimen, patients under treatment

time after administration until normal plasma levels are approached [1]: about twelve
patients experiencing nausea [2]: about forty five
patients with vomiting [2]: about seventeen
SMILES: COc1ccc(C(CN(C)C)C2(O)CCCCC2)cc1 (stereo not drawn) [venlafaxine hydrochloride, 1-[2-(dimethylamino)-1-(4-methoxyphenyl)-ethyl]cyclohexanol]
